Measured values from the Deep4Chem optical property database.
One block for each molecule: values may come before it.

Assay: solvent given as SMILES

Compound: CCN(CC)c1ccc([N+]2=Cc3ccc4c5c(ccc4c3O[B-]2(c2c(F)c(F)c(F)c(F)c2F)c2c(F)c(F)c(F)c(F)c2F)C=[N+](c2ccc(N(CC)CC)cc2)[B-](c2c(F)c(F)c(F)c(F)c2F)(c2c(F)c(F)c(F)c(F)c2F)O5)cc1
- absorption maximum (in C1CCOC1): 559 nm
- absorption maximum (in CC#N): 555 nm
- absorption maximum (in CC(C)=O): 555 nm
- absorption maximum (in Cc1ccccc1): 584 nm
- absorption maximum (in ClCCl): 589 nm

Compound: c1csc(-c2ccc(-c3cccs3)s2)c1
- absorption maximum (in CC#N): 351 nm
- absorption maximum (in ClCCl): 355 nm

Compound: C(#Cc1ccc2ncsc2c1)c1ccc(N(c2ccc(C#Cc3ccc4ncsc4c3)cc2)c2ccc(C#Cc3ccc4ncsc4c3)cc2)cc1
- absorption maximum (in Cc1ccccc1): 380 nm

Compound: COc1ccc2c(c1)CCC1=C(c3ccccc3)C3=Nc4c(-c5ccccc5)c5c(n4[B-](F)(F)[N+]3=C12)-c1ccc(OC)cc1CC5
- absorption maximum (in ClC(Cl)Cl): 740 nm

Compound: Cc1c(-c2ccc(N3c4ccccc4C(C)(C)c4ccccc43)cc2)ncnc1-c1ccc(N2c3ccccc3C(C)(C)c3ccccc32)cc1
- absorption maximum (in Cc1ccccc1): 367.5 nm

Compound: F[B-]1(F)OC(c2ccccc2)=CC(c2ccccc2)=[O+]1
- absorption maximum (in CC#N): 376 nm
- absorption maximum (in ClC(Cl)(Cl)Cl): 375 nm

Compound: CC1(C)C(/C=C/C=C/C=C/C=C2/N(CCC(=O)O)c3ccc4ccccc4c3C2(C)C)=[N+](CCC(=O)O)c2ccc3ccccc3c21
- absorption maximum (in CO): 792 nm

Compound: CC(C)(C)c1ccc(-c2c(-c3ccc(N(c4ccccc4)c4ccccc4)cc3)cc(-c3ccc(N(c4ccccc4)c4ccccc4)cc3)c(-c3ccc(C(C)(C)C)cc3)c2-c2ccc(C(C)(C)C)cc2)cc1
- absorption maximum (in C1CCOC1): 316 nm

Compound: CC(C)(C)c1ccc2c(c1)c1cc(C(C)(C)C)ccc1n2-c1ccc(S(=O)(=O)c2ccc(-n3c4ccc(C(C)(C)C)cc4c4cc(C(C)(C)C)ccc43)cn2)nc1
- absorption maximum (in Cc1ccccc1): 365.77 nm

Compound: CC(C)(C)c1cc(C[n+]2ccc(-c3cc[n+](Cc4cc(C(C)(C)C)cc(C(C)(C)C)c4)cc3)cc2)cc(C(C)(C)C)c1
- absorption maximum (in CC#N): 259 nm

Compound: CN1C(C(=O)Nc2ccccn2)=C(O)c2sccc2S1(=O)=O
- absorption maximum (in C1COCCO1): 344 nm
- absorption maximum (in CC#N): 355 nm
- absorption maximum (in CCCCO): 350 nm
- absorption maximum (in CCCO): 350 nm
- absorption maximum (in CCO): 351 nm
- absorption maximum (in CCOC(C)=O): 342 nm
- absorption maximum (in CO): 354 nm

Compound: COc1cc(OC)cc(C2=C3C(C)=C(I)C(/C=C/c4ccsc4)=[N+]3[B-](F)(F)n3c(/C=C/c4ccsc4)c(I)c(C)c32)c1
- absorption maximum (in C1CCOC1): 670 nm
- absorption maximum (in CS(C)=O): 675 nm
- absorption maximum (in ClCCl): 670 nm

Compound: Fc1ccc(-c2nc3n(c2-c2ccncc2)CCS3)cc1
- absorption maximum (in C1CCCCC1): 328 nm
- absorption maximum (in C1CCOC1): 328.5 nm
- absorption maximum (in C1COCCO1): 328.5 nm
- absorption maximum (in CC#N): 319 nm
- absorption maximum (in CC(C)(C)O): 329.5 nm
- absorption maximum (in CC(C)O): 328 nm
- absorption maximum (in CCO): 325 nm
- absorption maximum (in CCOC(C)=O): 319 nm
- absorption maximum (in CN(C)C=O): 326.5 nm
- absorption maximum (in CNC=O): 325.5 nm
- absorption maximum (in CO): 322.5 nm
- absorption maximum (in CS(C)=O): 329 nm
- absorption maximum (in Cc1ccc(C)cc1): 332 nm
- absorption maximum (in Cc1ccccc1): 333.5 nm
- absorption maximum (in ClC(Cl)Cl): 329 nm
- absorption maximum (in ClCCl): 326 nm
- absorption maximum (in O): 322 nm
- absorption maximum (in OCCO): 330 nm

Compound: CC(C)[Si](C#Cc1ccc(C#Cc2c3cc4ccccc4cc3c(C#C[Si](C(C)C)(C(C)C)C(C)C)c3cc4ccccc4cc23)cc1)(C(C)C)C(C)C
- absorption maximum (in ClCCl): 659 nm

Compound: c1ccc(-n2nc(-c3ccc(-c4ccc5c(c4)C(c4ccccc4)(c4ccccc4)c4ccccc4-5)cc3)nc2-c2ccccn2)cc1
- absorption maximum (in ClCCl): 323 nm

Compound: CC(C)(C)c1ccc(-c2nc3c4ccc(-c5ccccc5)cc4c4cc(-c5ccccc5)ccc4c3n2-c2ccc(C(C)(C)C)cc2)cc1
- absorption maximum (in C1CCOC1): 331 nm
- absorption maximum (in C1COCCO1): 333 nm
- absorption maximum (in CC#N): 329 nm
- absorption maximum (in CCCCCC): 331 nm
- absorption maximum (in CCCCOCCCC): 331 nm
- absorption maximum (in CCN(CC)CC): 332 nm
- absorption maximum (in CCOC(C)=O): 329 nm
- absorption maximum (in CCOCC): 330 nm
- absorption maximum (in CN(C)C=O): 331 nm
- absorption maximum (in Cc1ccccc1): 333 nm
- absorption maximum (in ClC=C(Cl)Cl): 332 nm
- absorption maximum (in ClCCl): 330 nm

Compound: CN(C)c1ccc(/C=C/c2ccc(C#N)cc2)cc1
- absorption maximum (in C1CCOC1): 385 nm
- absorption maximum (in CC#N): 383 nm
- absorption maximum (in CCCC#N): 386 nm
- absorption maximum (in CCCCCC): 378 nm
- absorption maximum (in CCCCOCCCC): 380 nm
- absorption maximum (in CCO): 383 nm
- absorption maximum (in CCOCC): 380 nm

Compound: COc1ccc(C#Cc2ccc(C#Cc3ccc(C#Cc4ccccc4C#N)cc3C#N)cc2C#N)cc1
- absorption maximum (in C1CCOC1): 369 nm
- absorption maximum (in CC#N): 364 nm
- absorption maximum (in CN(C)C=O): 369 nm
- absorption maximum (in ClC(Cl)Cl): 371 nm
- absorption maximum (in c1ccccc1): 371 nm

Compound: CCCCCCCc1ccc(C2=[N+]3C(=C4c5cc(OCC(CC)CC)c(-c6ccc(CCCCCCC)o6)n5[B-](F)(F)[n+]5c4n(c4cc(C(C)(C)C)ccc45)[B-]3(F)F)C=C2OCC(CC)CC)o1
- absorption maximum (in C1CCOC1): 816 nm
- absorption maximum (in ClCCl): 826 nm

Compound: N#Cc1nc2c3ccc(-c4ccc(N(c5ccccc5)c5ccccc5)cc4)cc3c3cc(-c4ccc(N(c5ccccc5)c5ccccc5)cc4)ccc3c2nc1C#N
- absorption maximum (in Cc1ccccc1): 460 nm

Compound: CCCCn1c2ccc(/C=C(\C#N)c3ccc([N+](=O)[O-])cc3)cc2c2cc(Cn3c(-c4ccc5c(c4)c4ccccc4n5CCCC)nc4ccccc43)ccc21
- absorption maximum (in C1CCOC1): 410 nm
- absorption maximum (in CC#N): 416 nm
- absorption maximum (in CCO): 416 nm
- absorption maximum (in CCOC(C)=O): 408 nm
- absorption maximum (in CN(C)C=O): 423 nm
- absorption maximum (in ClCCl): 417 nm
- absorption maximum (in O): 434 nm
- absorption maximum (in c1ccccc1): 409 nm

Compound: Nc1nc2ccc(F)cc2[n+]([O-])n1
- absorption maximum (in CC#N): 415 nm
- absorption maximum (in O): 422 nm

Compound: F[B-]1(F)n2cccc2C(c2ccccc2)=C2C=CC(c3ccc(OC4=[N+]5C(=C(c6ccccc6)c6cc(Br)c(Br)n6[B-]5(F)F)C=C4Br)cc3)=[N+]21
- absorption maximum (in ClC(Cl)Cl): 562 nm

Compound: Nc1ncc2nc[nH]c2n1
- absorption maximum (in O): 290 nm

Compound: O=C(c1ccncc1)c1ccc(-n2c3ccccc3c3cc(-n4c5ccccc5c5ccccc54)ccc32)cc1
- absorption maximum (in C1CCOC1): 342.64 nm
- absorption maximum (in CCCCCC): 342.64 nm
- absorption maximum (in Cc1ccccc1): 362 nm
- absorption maximum (in ClCCl): 342.64 nm

Compound: COc1ccc(-c2ccc(-c3ccc(OC)cc3)c3nc(-c4ccccc4)c(-c4ccccc4)nc23)cc1
- absorption maximum (in ClC(Cl)Cl): 366 nm

Compound: C1=C(c2ccccc2)B(c2ccccc2)Nc2c1ccc1ccccc21
- absorption maximum (in C1CCCCC1): 365 nm

Compound: CCCCCCc1ccc(-c2ccc(-c3cc(-c4ccc(-c5ccc(CCCCCC)s5)s4)c4ccc5c(-c6ccc(-c7ccc(CCCCCC)s7)s6)cc(-c6ccc(-c7ccc(CCCCCC)s7)s6)c6ccc3c4c65)s2)s1
- absorption maximum (in ClC(Cl)Cl): 451 nm

The remaining lines, values ahead:

- absorption maximum (in ClCCl): 373 nm
Compound: C[Si]1(C)O[Si](C)(C)c2cc3nc4ccc(Cl)cc4c(-c4ccccc4)c3cc2[Si](C)(C)O1

- absorption maximum (in ClCCl): 530 nm
Compound: O=[N+]([O-])c1ccc2c(ccc3[n+]2[B-](F)(F)n2c-3cc3c4ccccc4c4ccccc4c32)c1

- absorption maximum (in CCO): 369 nm
Compound: CCOC(=O)c1cc(C(=O)OCC)c2c(C)ccc(O)c2n1

- absorption maximum (in C1CCOC1): 360 nm
Compound: N#Cc1c(N2CCCCC2)cc(-c2ccccc2)c2c1-c1ccccc1C2

- absorption maximum (in O): 439 nm
Compound: O=C(O)CCCCCn1c2ccccc2c(=O)c2cc(Br)ccc21

- absorption maximum (in c1ccccc1): 402 nm
Compound: Nc1ccc2nc(-c3ccccc3)c(=O)oc2c1

- absorption maximum (in CN(C)C=O): 310 nm
Compound: Cc1nc2cccc(-c3nc4ccc(Cl)cc4o3)c2c(=O)[nH]1

- absorption maximum (in C1CCCCC1): 427 nm
Compound: Cc1cc(C)c(B2c3cc(C(C)(C)C)cc4ccc5ccc6cc(C(C)(C)C)cc2c6c5c34)c(C)c1

- absorption maximum (in ClC(Cl)Cl): 372 nm
Compound: CCCCc1c2c(nc3ccccc13)-c1cc3c(cc1CC2)-c1nc2ccccc2c(CCCC)c1CC3

- absorption maximum (in ClCCl): 379 nm
Compound: COc1ccc(-c2ccc(/C=C/c3cnc4ccccc4n3)cc2)cc1

- absorption maximum (in ClCCl): 532 nm
Compound: F[B-]1(F)n2c(Cl)c(Cl)c(Br)c2C(Oc2ccccc2)=C2C(Br)=C(Cl)C(Cl)=[N+]21

- absorption maximum (in C1CCCCC1): 305 nm
Compound: COc1ccc(C2=C(c3ccc(OC)cc3)C(C)(C)c3cc(-c4ccccc4)ccc32)cc1

- absorption maximum (in CCO): 354 nm
- absorption maximum (in ClC(Cl)Cl): 355 nm
Compound: COc1ccc2c(-c3nc(-c4ccccc4Cl)no3)cc(=O)oc2c1

- absorption maximum (in CC#N): 388 nm
- absorption maximum (in ClCCl): 398 nm
Compound: Cn1c(=O)cc(C(=O)c2ccccc2)c2sc(-c3ccc(C(F)(F)F)cc3)cc21

- absorption maximum (in C1CCCCC1): 591 nm
Compound: CCc1c(C)c2n(c1C)[B-](F)(F)[N+]1=C(C=C3C=Cc4ccccc43)C=CC1=C2C

- absorption maximum (in ClC(Cl)Cl): 336 nm
Compound: COc1ccc2cc(-c3ccccc3CC#N)c(=O)oc2c1

- absorption maximum (in ClCCl): 323 nm
Compound: CCOC(=O)c1c(-c2cc3ccccc3oc2=O)nn(-c2ccc(OC)cc2)c1C(=O)OCC

- absorption maximum (in ClCCl): 680 nm
Compound: CCOC(=O)COc1ccc(/C=C/C2=[N+]3C(=Cc4c5ccccc5c(-c5[nH]c(C)cc5C)n4[B-]3(F)F)C(C)=C2)cc1

- absorption maximum (in C1COCCO1): 322 nm
- absorption maximum (in CC#N): 322 nm
- absorption maximum (in CC(C)O): 321 nm
- absorption maximum (in CCCCO): 321 nm
- absorption maximum (in CCO): 321 nm
- absorption maximum (in CCOC(C)=O): 322 nm
- absorption maximum (in CN(C)C=O): 324 nm
- absorption maximum (in CO): 321 nm
- absorption maximum (in CS(C)=O): 325 nm
- absorption maximum (in O): 319 nm
Compound: O=S(=O)([O-])c1ccc(O)c2ccccc12

- absorption maximum (in O): 328 nm
Compound: [NH3+]c1ccc2ccc(O)cc2c1

- absorption maximum (in C1CCCCC1): 374 nm
- absorption maximum (in CC#N): 364 nm
- absorption maximum (in CO): 354 nm
- absorption maximum (in ClCCl): 367 nm
- absorption maximum (in O): 338 nm
Compound: Cc1nc(-c2ccccc2)c2ccccn12

- absorption maximum (in C1CCCCC1): 384 nm
- absorption maximum (in CC#N): 382 nm
- absorption maximum (in ClC(Cl)Cl): 384 nm
Compound: O=C1Cc2ccc(cc2)CC(=O)Cc2ccc(c3nsnc23)C1

- absorption maximum (in C1COCCO1): 372 nm
- absorption maximum (in CC#N): 376 nm
- absorption maximum (in CCCCO): 372 nm
- absorption maximum (in CCO): 363 nm
- absorption maximum (in CO): 364 nm
- absorption maximum (in O): 376 nm
Compound: O=C(O)c1cc2c(ccc3ccccc32)oc1=O
